In ChEMBL document CHEMBL1833951, “Diterpenes from the Hainan soft coral Lobophytum cristatum Tixier-Durivault” (J Nat Prod, 2011):

How the values were obtained:
A549 = assay: Cytotoxicity against human A549 cells by MTT assay; assay type: functional, cell-based
HCT-116 = assay: Cytotoxicity against human HCT116 cells by SRB assay; assay type: functional, cell-based

Row | Compound | IC50 (A549) [µM] | IC50 (HCT-116) [µM]
1 | C=C(CCC=C(C)C)[C@H]1CC[C@]2(C)CCCC(=C)[C@H]2C1 [LOBOPHYTUMIN C] | 35.7 | 37.1
2 | COC(=O)Nc1nc2cc(C(=O)c3cccs3)ccc2[nH]1 [NOCODAZOLE] | 0.087 | 0.173
3 | C=C(CCC=C(C)C)[C@H]1CC[C@@]2(C)CCC=C(C)[C@@H]2C1 [LOBOPHYTUMIN D] | 36.7 | 35.7
